# Experimental data taken from US10570129B2 (Zoetis Services LLC, priority 2015, dated 2020).
# Legend:
# D. immitis microfilariae = assay: Dirofilaria immitis, microfilariae (DiMF) in vitro motility assay; format: cell-based; details: Dirofilaria immitis, 72 h, read-out: DiMF minimally effective dose (MEC)
# Haemonchus contortus L3 = assay: microbe, parasite or virus in culture; format: cell-based; details: Haemonchus contortus, 96 h, read-out: HcL3 Minimal Effective Concentration (MEC)
Compound,minimal effective concentration (D. immitis microfilariae) [µM],minimal effective concentration (Haemonchus contortus L3) [µM]
"N#Cc1ccc2c(c1)c1c(n2C(=O)NCc2ccnc(Cl)c2)CCN(C/C=C/c2ccc(Br)cc2F)C1 [Example 73, (E)-2-(3-(4-bromo-2-fluorophenyl)allyl)-N-((2-chloropyridin-4-yl)methyl)-8-cyano-1,2,3,4-tetrahydro-5H-pyrido[4,3-b]indole-5-carboxamide]",> 100,0.1
"N#Cc1ccc2c(c1)c1c(n2C(=O)NCc2ccnc(Cl)c2)CCN(C/C=C/c2c(F)cc(Cl)cc2F)C1 [Example 74, (E)-2-(3-(4-chloro-2,6-difluorophenyl)allyl)-N-((2-chloropyridin-4-yl)methyl)-8-cyano-1,2,3,4-tetrahydro-5H-pyrido[4,3-b]indole-5-carboxamide]",> 100,0.2
"N#Cc1ccc2c(c1)c1c(n2C(=O)NCc2ccnc(Cl)c2)CCN(C/C=C/c2ccc(Cl)cc2F)C1 [Example 75, (E)-2-(3-(4-chloro-2-fluorophenyl)allyl)-N-((2-chloropyridin-4-yl)methyl)-8-cyano-1,2,3,4-tetrahydro-5H-pyrido[4,3-b]indole-5-carboxamide]",10.2,0.1
"N#Cc1ccc2c(c1)c1c(n2C(=O)NCc2ccnc(Cl)c2)CCN(C/C=C/c2c(F)cc(F)cc2F)C1 [Example 76, (E)-N-((2-chloropyridin-4-yl)methyl)-8-cyano-2-(3-(2,4,6-trifluorophenyl)allyl)-1,2,3,4-tetrahydro-5H-pyrido[4,3-b]indole-5-carboxamide]",> 100,0.1
"N#Cc1ccc2c(c1)c1c(n2C(=O)NCc2ccnc(Cl)c2)CCN(C/C=C/c2cc(F)ccc2Br)C1 [Example 77, (E)-2-(3-(2-bromo-5-fluorophenyl)allyl)-N-((2-chloropyridin-4-yl)methyl)-8-cyano-1,2,3,4-tetrahydro-5H-pyrido[4,3-b]indole-5-carboxamide]",> 100,0.3
"N#Cc1ccc2c(c1)c1c(n2C(=O)NCc2ccnc(Cl)c2)CCN(C/C=C/c2cc(Br)ccc2F)C1 [Example 78, (E)-2-(3-(5-bromo-2-fluorophenyl)allyl)-N-((2-chloropyridin-4-yl)methyl)-8-cyano-1,2,3,4-tetrahydro-5H-pyrido[4,3-b]indole-5-carboxamide]",> 100,0.6
"N#Cc1ccc2c(c1)c1c(n2C(=O)NCc2ccnc(Cl)c2)CCN(C/C=C/c2ccc(F)c(Br)c2)C1 [Example 79, (E)-2-(3-(3-bromo-4-fluorophenyl)allyl)-N-((2-chloropyridin-4-yl)methyl)-8-cyano-1,2,3,4-tetrahydro-5H-pyrido[4,3-b]indole-5-carboxamide]",> 100,0.3
"N#Cc1ccc2c(c1)c1c(n2C(=O)NCc2ccnc(Cl)c2)CCN(C/C=C/c2ccc(F)c(F)c2F)C1 [Example 80, (E)-N-((2-chloropyridin-4-yl)methyl)-8-cyano-2-(3-(2,3,4-trifluorophenyl)allyl)-1,2,3,4-tetrahydro-5H-pyrido[4,3-b]indole-5-carboxamide]",> 100,0.06
"N#Cc1ccc2c(c1)c1c(n2C(=O)NCc2ccnc(Cl)c2)CCN(C/C=C/c2ccc(Br)c(F)c2F)C1 [Example 81, (E)-2-(3-(4-bromo-2,3-difluorophenyl)allyl)-N-((2-chloropyridin-4-yl)methyl)-8-cyano-1,2,3,4-tetrahydro-5H-pyrido[4,3-b]indole-5-carboxamide]",> 100,0.2
"N#Cc1ccc2c(c1)c1c(n2C(=O)NCc2ccnc(Cl)c2)CCN(C/C=C/c2ccc(Cl)c(F)c2F)C1 [Example 82, (E)-2-(3-(4-chloro-2,3-difluorophenyl)allyl)-N-((2-chloropyridin-4-yl)methyl)-8-cyano-1,2,3,4-tetrahydro-5H-pyrido[4,3-b]indole-5-carboxamide]",> 100,0.2
"N#Cc1ccc2c(c1)c1c(n2C(=O)NCc2ccnc(Cl)c2)CCN(C/C=C/c2c(F)c(F)c(F)c(F)c2F)C1 [Example 83, (E)-N-((2-chloropyridin-4-yl)methyl)-8-cyano-2-(3-(perfluorophenyl)allyl)-1,2,3,4-tetrahydro-5H-pyrido[4,3-b]indole-5-carboxamide]",> 100,0.1
"N#Cc1ccc2c(c1)c1c(n2C(=O)NCc2ccnc(Cl)c2)CCN(C/C=C/c2c(F)c(F)c(Cl)c(F)c2F)C1 [Example 84, (E)-2-(3-(4-chloro-2,3,5,6-tetrafluorophenyl)allyl)-N-((2-chloropyridin-4-yl)methyl)-8-cyano-1,2,3,4-tetrahydro-5H-pyrido[4,3-b]indole-5-carboxamide]",> 100,0.1
"N#Cc1ccc2c(c1)c1c(n2C(=O)NCc2ccnc(Cl)c2)CCN(C/C=C/c2ccc(Br)c(F)c2)C1 [Example 85, (E)-2-(3-(4-bromo-3-fluorophenyl)allyl)-N-((2-chloropyridin-4-yl)methyl)-8-cyano-1,2,3,4-tetrahydro-5H-pyrido[4,3-b]indole-5-carboxamide]",> 100,0.1
"N#Cc1ccc2c(c1)c1c(n2C(=O)NCc2ccnc(Cl)c2)CCN(C/C=C/c2ccc(F)cc2Cl)C1 [Example 87, (E)-2-(3-(2-chloro-4-fluorophenyl)allyl)-N-((2-chloropyridin-4-yl)methyl)-8-cyano-1,2,3,4-tetrahydro-5H-pyrido[4,3-b]indole-5-carboxamide]",5.7,0.2
"N#Cc1ccc2c(c1)c1c(n2C(=O)NCc2ccnc(Cl)c2)CCN(C/C=C/c2cc(F)c(F)c(F)c2)C1 [Example 89, (E)-N-((2-chloropyridin-4-yl)methyl)-8-cyano-2-(3-(3,4,5-trifluorophenyl)allyl)-1,2,3,4-tetrahydro-5H-pyrido[4,3-b]indole-5-carboxamide]",1,0.1
"N#Cc1ccc2c(c1)c1c(n2C(=O)NCc2ccnc(Cl)c2)CCN(C/C=C/c2cc(F)cc(F)c2)C1 [Example 90, (E)-N-((2-chloropyridin-4-yl)methyl)-8-cyano-2-(3-(3,5-difluorophenyl)allyl)-1,2,3,4-tetrahydro-5H-pyrido[4,3-b]indole-5-carboxamide]",3.3,0.1
"N#Cc1ccc(/C=C/CN2CCc3c(c4cc(C#N)ccc4n3C(=O)NCc3ccnc(Cl)c3)C2)cc1 [Example 91, (E)-N-((2-chloropyridin-4-yl)methyl)-8-cyano-2-(3-(4-cyanophenyl)allyl)-1,2,3,4-tetrahydro-5H-pyrido[4,3-b]indole-5-carboxamide]",13.5,0.4
"N#Cc1ccc2c(c1)c1c(n2C(=O)NCc2ccnc(Cl)c2)CCN(C/C=C/c2ccc(Cl)cc2)C1 [Example 92, (E)-2-(3-(4-chlorophenyl)allyl)-N-((2-chloropyridin-4-yl)methyl)-8-cyano-1,2,3,4-tetrahydro-5H-pyrido[4,3-b]indole-5-carboxamide]",3.3,0.3
"N#Cc1ccc2c(c1)c1c(n2C(=O)NCc2ccnc(Cl)c2)CCN(C/C=C/c2ccc(Cl)c(Cl)c2)C1 [Example 93, (E)-N-((2-chloropyridin-4-yl)methyl)-8-cyano-2-(3-(3,4-dichlorophenyl)allyl)-1,2,3,4-tetrahydro-5H-pyrido[4,3-b]indole-5-carboxamide]",2.4,0.7
"N#Cc1ccc2c(c1)c1c(n2C(=O)NCc2ccnc(Cl)c2)CCN(C/C=C/c2ccc(F)cc2Br)C1 [Example 94, (E)-2-(3-(2-bromo-4-fluorophenyl)allyl)-N-((2-chloropyridin-4-yl)methyl)-8-cyano-1,2,3,4-tetrahydro-5H-pyrido[4,3-b]indole-5-carboxamide]",> 100,0.1
"Cc1cc(/C=C/CN2CCc3c(c4cc(C#N)ccc4n3C(=O)NCc3ccnc(Cl)c3)C2)ccc1Cl [Example 96, (E)-2-(3-(4-chloro-3-methylphenyl)allyl)-N-((2-chloropyridin-4-yl)methyl)-8-cyano-1,2,3,4-tetrahydro-5H-pyrido[4,3-b]indole-5-carboxamide]",> 100,0.2
"N#Cc1ccc2c(c1)c1c(n2C(=O)NCc2ccnc(Cl)c2)CCN(C/C=C/c2ccc(Cl)c(Br)c2)C1 [Example 97, (E)-2-(3-(3-bromo-4-chlorophenyl)allyl)-N-((2-chloropyridin-4-yl)methyl)-8-cyano-1,2,3,4-tetrahydro-5H-pyrido[4,3-b]indole-5-carboxamide]",> 100,0.3
"N#Cc1ccc2c(c1)c1c(n2C(=O)NCc2ccnc(Cl)c2)CCN(C/C=C/c2ccc(F)c(C#N)c2)C1 [Example 98, (E)-N-((2-chloropyridin-4-yl)methyl)-8-cyano-2-(3-(3-cyano-4-fluorophenyl)allyl)-1,2,3,4-tetrahydro-5H-pyrido[4,3-b]indole-5-carboxamide]",> 100,0.3
"CS(=O)(=O)c1ccc(/C=C/CN2CCc3c(c4cc(C#N)ccc4n3C(=O)NCc3ccnc(F)c3)C2)cc1 [Example 100, (E)-8-cyano-N-((2-fluoropyridin-4-yl)methyl)-2-(3-(4-(methylsulfonyl)-phenyl)allyl)-1,2,3,4-tetrahydro-5H-pyrido[4,3-b]indole-5-carboxamide]",> 100,> 100
"N#Cc1ccc2c(c1)c1c(n2C(=O)NCc2ccnc(F)c2)CCN(C/C=C/c2ccc(Cl)cc2Cl)C1 [Example 101, (E)-8-cyano-2-(3-(2,4-dichlorophenyl)allyl)-N-((2-fluoropyridin-4-yl)methyl)-1,2,3,4-tetrahydro-5H-pyrido[4,3-b]indole-5-carboxamide]",24,0.2
